By inhibition is commonly meant the percentage by which the read-out fell short of the control.

This test concerns NF-κB mediated transcription. The experiment in a line: NF-κB driven β-lactamase reporter assay in ECV-304 NF-κB.βlaZ cells (AURORA CCF2 fluorescence). Type of test: cell-based, human. As to conditions: 10 μM compound, ECV-304 NF-κB.βlaZ cells stimulated with 10 ng/mL TNF-α or 100 pg/mL IL-1β, 6 hours at 37° C., inhibition of maximum blue/green ratio; for inhibition at 10 µM: Homo sapiens, read-out: Percent Inhibition at 10 μM. From the text:
Introduction: Described below is an in vitro, cell-based, high throughput screening assay that reliably identifies inhibitors of NF-κB mediated transcription.
The assay takes advantage of AURORA (Aurora Bioscience Corporation, La Jolla, Calif.) fluorescence technology. Endothelial cell vein-304 (ECV-304) cells, an endothelial-like immortalized cell type, may be stably transfected with a plasmid vector containing the cDNA for the enzyme β-lactamase (under the control of a basal promoter, Stratagene pNFκB-luc vector) and 5 copies of an human immunodeficiency virus-1 (HIV-1) NF-κB binding site. ECV-304 cells are described by Takahashi K. et al. in Spontaneous Transformation and Immobilization of Human Endothelial Cells, In Vitro Cell. Dev. Biol. 1990;25:265-274. Activation of NF-κB in ECV-304 by cytokines such as TNF-α or interleuken-1 beta (IL-1β) results in the production of β-lactamase, which cleaves a green fluorescent substrate (excitation/emission wavelengths 395 nm1530 nm) to yield a blue fluorescent product (excitation/emission wavelengths 395 nm/460 nm). Visually, the uncleaved green fluorescent substrate is sequestered intracellularly and emits green fluorescence, while the cleaved product emits blue fluorescence. Fluorescence is quantitated spectrophotometrically, and the spectral intensity of blue fluorescence versus green fluorescence can be used to calculate the degree of activation of NF-κB.
The assay was performed as outlined here and described in detail below. ECV-304 cells permanently transfected with the NF-κB driven β-lactamase gene (ECV-304 NF-κB.βlaZ) were plated in clear-bottom, black 96-well plates (1.25×10^4 cells/well) in media-199 (M-199) media containing 2% fetal bovine serum (FBS). […] The AURORA fluorescent disclosing reagent was then added. After one additional hour, the plates were read in a fluorometer at the blue 395 nm/460 nm (excitation/emission) and green 395 nm/530 nm wavelengths. Then the blue/green emission ratio was calculated. […] An IC50 for said sulfonylaminocarbonyl derivative was determined from a dose-response curve. This assay was designed to be optionally run in either high or low throughput screening modes.
Five copies of the HIV-1 NF-κB binding site (5′-[…]-3′) along with a TATA box were inserted into the EcorRI/BamHI sites of plasmid pMCRBlaZ to create plasmid p5×KBBlaZ, which procedure is illustrated in Scheme 1 below. [formula]
Cells were selected for antibiotic resistance with Zeocin for approximately 2 weeks. After the stable population had been expanded to a significant number of cells, it was stimulated with IL-1β and stained with AURORA CCF2 dye, a membrane permeant, intracellularly-trapped, fluorescent substrate. Cells that fluoresced blue (indicating a positive response of the NF-κB/β-lactamase reporter to stimulation by IL-1β) in the stimulated/stained population were then sorted by flow cytometry into a pool. The pool was expanded and stained with CCF2, and then the cells that fluoresced green from this unstimulated population (indicating a low background of the NF-κB/β-lactamase reporter construct) were cloned by flow cytometry after adding 1 cell per well in 96-well plates. Clones were allowed to expand. Each cloned cell line was then examined for fold stimulation after stimulation with IL-1β using a CCF2 reporter assay, and these stimulated cells were compared to unstimulated cells.
Cells: ECV-304 NF-κB β-Lactamase clone 1E8
Inhibitors: Prepared stock solutions of aminosulfonyl derivatives at 10 mM concentration in DMSO;
c) Added 10 μL of B into appropriate well in assay plate (the final concentration of drug is 10 μM), and […]
On the technique in general: A reporter such as luciferase makes a cellular process visible.

Read-outs that look alike come from different tables or passages of the source. A value given as a limit tells only on which side of the number the result lay.

On to `CCCCCCCCCCCCOS(=O)(=O)NC(=O)Oc1c(C(C)(C)C)cc(C)cc1C(C)(C)C` [Example 51, Carbamic acid, [(dodecyloxy)sulfonyl]-, 2,6-bis(1,1-dimethylethyl)-4-methylphenyl ester], for which the inhibition at 10 µM came out at 47.2%.

In the case of `CCCCCCCCCCN(CCCCCCCCCC)S(=O)(=O)NC(=O)Oc1c(C(C)(C)C)cc(C)cc1C(C)(C)C` [Example 52, Carbamic acid, [(didecylamino)sulfonyl]-, 2,6-bis(1,1-dimethylethyl)-4-methylphenyl ester], the inhibition at 10 µM is < 10%.

Turning to `CCCCCCCCCCCCOC(=O)NS(=O)(=O)Nc1c(C(C)C)cccc1C(C)C` [Example 53, Carbamic acid, [[[2,6-bis(1-methylethyl)phenyl]amino]sulfonyl]-, dodecyl ester], the “Percent Inhibition at 10 μM” value (10 µM) was 61.31%.

As to `COC(=O)NS(=O)(=O)Nc1c(C(C)C)cccc1C(C)C` [Example 54, Carbamic acid, [[[2,6-bis(1-methylethyl)phenyl]amino]sulfonyl]-, methyl ester], the inhibition at 10 µM (ECV-304, 6 h) was < 10%.

Turning to `CCCCCCCCCCCCOC(=O)NS(=O)(=O)Oc1c(C(C)C)cccc1C(C)C` [Example 55, Carbamic acid, [[2,6-bis(1-methylethyl)phenoxy]sulfonyl]-, dodecyl ester], the inhibition at 10 µM (ECV-304, 6 h) worked out at 55.1%.

For `COC(=O)NS(=O)(=O)Oc1c(C(C)C)cccc1C(C)C` [Example 56, Carbamic acid, [[2,6-bis(1-methylethyl)phenoxy]sulfonyl]-, methyl ester], the inhibition at 10 µM was < 10%.

Consider `CCCCCCOS(=O)(=O)NC(=O)Oc1c(C(C)C)cccc1C(C)C` [Example 57, Carbamic acid, [(hexyloxy)sulfonyl]-, 2,6-bis(1-methylethyl)phenyl ester], for which the inhibition at 10 µM worked out at 20.4%.

Turning to `CC(C)c1cccc(C(C)C)c1OC(=O)NS(=O)(=O)N1CCOCC1` [Example 58, Carbamic acid, (4-morpholinylsulfonyl)-, 2,6-bis(1-methylethyl)phenyl ester], the inhibition at 10 µM was < 10%.

`CC(C)c1cccc(C(C)C)c1OC(=O)NS(=O)(=O)N1CCCCC1` [Example 59, Carbamic acid, (1-piperidinylsulfonyl)-, 2,6-bis(1-methylethyl)phenyl ester]: the inhibition at 10 µM is < 10%.

In the case of `CCCCCCCCCCCCCCCCCCOS(=O)(=O)NC(=O)Nc1c(C(C)C)cccc1C(C)C` [Example 60, Sulfamic acid, [[[2,6-bis(1-methylethyl)phenyl]amino]carbonyl]-, octadecyl ester], the inhibition at 10 µM (ECV-304, 6 h) was < 10%.

With `CCCCCCCCCCCCOC(=O)NS(=O)(=O)OCCCCCCCCCCCC` [Example 61, Carbamic acid, [(dodecyloxy)sulfonyl]-, dodecyl ester], the inhibition at 10 µM (ECV-304, 6 h) turned out to be 27.4%.

`CC(C)c1cccc(C(C)C)c1OC(=O)NS(=O)(=O)N(C(C)C)C(C)C` [Example 62, Carbamic acid, [[bis(1-methylethyl)amino]sulfonyl]-, 2,6-bis(1-methylethyl)-phenyl ester]: the inhibition at 10 µM was < 10%.

As to `CC(C)c1cccc(C(C)C)c1NC(=O)NS(=O)(=O)N(C(C)C)C1CCCCC1` [Example 63, Urea, N-[2,6-bis(1-methylethyl)phenyl]-N′-[[cyclohexyl(1-methylethyl)amino]-sulfonyl]-], for the setting “ECV-304, 6 h”, the inhibition at 10 µM turned out to be 23%.

As for `CCCCCN(CCCCC)S(=O)(=O)NC(=O)Nc1c(C(C)C)cccc1C(C)C` [Example 64, Urea, N-[2,6-bis(1-methylethyl)phenyl]-N′-[(dipentylamino)sulfonyl]-], the inhibition at 10 µM (ECV-304, 6 h) was found to be 55.4%.

As to `CC(C)c1cccc(C(C)C)c1OC(=O)NS(=O)(=O)NC(c1ccccc1)C(C)C` (stereo not shown) [Example 65, Carbamic acid, [[((1-methylethyl)phenylmethyl)amino]sulfonyl]-, 2,6-bis(1-methylethyl)phenyl ester], the inhibition at 10 µM is 16.4%.

Consider `CC(C)c1cccc(C(C)C)c1OC(=O)NS(=O)(=O)N1CCCC1` [Example 66, Carbamic acid, (1-pyrrolidinylsulfonyl)-, 2,6-bis(1-methylethyl)phenyl ester], for which the inhibition at 10 µM is < 10%.

Consider `CCCCCCNS(=O)(=O)NC(=O)Oc1c(C(C)C)cccc1C(C)C` [Example 67, Carbamic acid, [(hexylamino)sulfonyl]-, 2,6-bis(1-methylethyl)phenyl ester], for which the inhibition at 10 µM was 13.8%.

As to `CC(C)CN(CC(C)C)S(=O)(=O)NC(=O)Nc1c(C(C)C)cccc1C(C)C` [Example 68, Urea, N-[2,6-bis(1-methylethyl)phenyl]-N′-[[bis(2-methylpropyl)amino]-sulfonyl]-], the inhibition at 10 µM (ECV-304, 6 h) worked out at 34.3%.

As to `CCCCCCCCCCCCOS(=O)(=O)NC(=O)Nc1c(C(C)C)cccc1C(C)C` [Example 69, Sulfamic acid, [[[2,6-bis(1-methylethyl)phenyl]amino]carbonyl]-, dodecyl ester], for the setting “ECV-304, 6 h”, the inhibition at 10 µM came to 75.5%.

As to `CC(C)c1cccc(C(C)C)c1NC(=O)NS(=O)(=O)N1CCCC1` [Example 70, Urea, N-[2,6-bis(1-methylethyl)phenyl]-N′-(1-pyrrolidinylsulfonyl)-], the inhibition at 10 µM (ECV-304, 6 h) is < 10%.

In the case of `CC(C)c1cccc(C(C)C)c1NC(=O)NS(=O)(=O)N1CCCCC1` [Example 71, Urea, N-[2,6-bis(1-methylethyl)phenyl]-N′-(1-piperidinylsulfonyl)-], the inhibition at 10 µM (ECV-304, 6 h) was < 10%.

As to `CC(C)c1cccc(C(C)C)c1OC(=O)NS(=O)(=O)N1CCc2ccccc21` [Example 72, Carbamic acid, [(2,3-dihydro-1H-indol-1-yl)sulfonyl]-, 2,6-bis(1-methylethyl)-phenyl ester], the inhibition at 10 µM was found to be 14.1%.

For `C=CCN(CC)S(=O)(=O)NC(=O)Nc1c(C(C)C)cccc1C(C)C` [Example 73, Urea, N-[2,6-bis(1-methylethyl)phenyl]-N′-[[ethyl(2-propenyl)amino]-sulfonyl]-], the inhibition at 10 µM (ECV-304, 6 h) was < 10%.

In the case of `CCCCCCCCCCN(CCCCCCCCCC)S(=O)(=O)NC(=O)Nc1c(C(C)C)cccc1C(C)C` [Example 75, Urea, N-[2,6-bis (1-methylethyl)phenyl]-N′-[(didecylamino)sulfonyl]-], the “Percent Inhibition at 10 μM” value was <10%.

With `CCCCCCCCCCCCN(CCCCCCCCCCCC)S(=O)(=O)NC(=O)Nc1c(C(C)C)cccc1C(C)C` [Example 76, Urea, N-[2,6-bis(1-methylethyl)phenyl]-N′-[(didodecylamino)sulfonyl]-], the inhibition at 10 µM (ECV-304, 6 h) is < 10%.

As for `CCCN(CCC)S(=O)(=O)NC(=O)Nc1c(C(C)C)cccc1C(C)C` [Example 77, Urea, N-[2,6-bis(1-methylethyl)phenyl]-N′-[(dipropylamino)sulfonyl]-], where the note is “ECV-304, 6 h”, the inhibition at 10 µM was < 10%.

As for `CC(C)c1cccc(C(C)C)c1NC(=O)NS(=O)(=O)N(C1CCCCC1)C1CCCCC1` [Example 78, Urea, N-[2,6-bis(1-methylethyl)phenyl]-N′-[(dicyclohexylamino)-sulfonyl]-], the inhibition at 10 µM (ECV-304, 6 h) was 40.9%.

Take `CCCCCCCCCCCCOC(=O)NS(=O)(=O)Nc1c(OC)cc(OC)cc1OC` [Example 79, Carbamic acid, [[(2,4,6-trimethoxyphenyl)amino]sulfonyl]-, dodecyl ester]: the inhibition at 10 µM (ECV-304, 6 h) was < 10%.

Source of the values: patent publication US20020183384A1, “Methods of treating nuclear factor-kappa B mediated diseases and disorders” (priority 2001, published 2002).
